Assay results as given in patent US7129036B1, “Reporter molecules and methods for assaying the lipidations status of a cell” (Tibotec BVBA, priority 1999, dated 2006).
Entries after “also recorded” stand apart in the source; their conditions may differ.

Experiments:
Assay type in all cases: cell-based
farnesyl transferase = biological target: T1, farnesyl transferase (Homo sapiens, UniProt P49354+P49356); experiment: Farnesyl transferase inhibition assay (EGFP-RasF membrane localization by fluorescence microscopy)
T1 construct: endogenous in cells; host or cells: K562 cells transduced with LNC-EGFP-RasF reporter
Method: The idea was to target EGFP to the plasma membrane by using a farnesylation signal sequence. […] The last 20 amino acids of c-Ha-Ras provides farnesylation and palmitoylation for targeting the Ras protein to the plasma membrane. We fused the C-terminal membrane targeting signal sequence of the human c-Ha-ras1 (J00277, NCBI) to the C-terminal end of EGFP (Clontech).
Twenty amino acids of the C-terminal end of c-Ha-ras 1 located in exon 4 were added to the C-terminus of the EGFP coding sequence by polymerase chain reaction (PCR) cloning.
The amphotropic packaging cell line PT67 (Clontech) was transfected (Pfx-2, Invitrogen) with pLNC-EGFP-(DEVD)-RasF and selected in 400 μg/ml G418. […] Gene transfer referred to as transduction in K562 and MT4 cells was easily observed by fluorescence microscopy.
(§1) K562 (MT4) cells were separated from PT67-pLNC-EGFP-(DEVD)-RasF and Non transduced K562 (MT4) cells were removed by selection in 400 μg/ml G418. The remaining fluorescent K562 (MT4) cells were directly cloned in 96 well plates by fluorescence activated cell sorting using an automatic cell deposit unit. […] Two weeks later, appropriate clones were selected by visual inspection using a fluorescence microscope and designated K562-LNC-EGFP-RasF or MT4-LNC-EGFP-(DEVD)-RasF. […]
In cells expressing EGFP without a farnesylation signal sequence, fluorescence is observed throughout the cell. […]

[1] = system: caspase 3 and/or caspase 7; experiment: Caspase assay (EGFP-DEVD-RasF membrane targeting by fluorescence microscopy); details: MT4-LNC-EGFP-DEVD-RasF cells, 10 μM, 4 h, FIG. 3B
Method: For the apoptosis construct, the same primer was used except that a sequence encoding DEVD (i.e. caspase 3 and 7 cleavage site) was included between EGFP and the Ras plasmamembrane targeting signal sequence (SEQ ID NO 4 and SEQ ID NO 5).
(§2) The amphotropic packaging cell line PT67 (Clontech) was transfected (Pfx-2, Invitrogen) with pLNC-EGFP-(DEVD)-RasF and selected in 400 μg/ml G418. In the surviving colonies, transcription occurs from (a) stably integrated plasmid(s) pLNC-EGFP-(DEVD)RasF. The resulting LNC-EGFP-(DEVD)-RasF mRNA is translated into EGFP-(DEVD)-RasF and the neomycin resistance protein and is also packaged into replication incompetent virions. […] Gene transfer referred to as transduction in K562 and MT4 cells was easily observed by fluorescence microscopy.
as §1

MT4-LNC-EGFP-RasF cells = experiment: Control without DEVD cleavage site (EGFP-RasF membrane targeting by fluorescence microscopy); details: 4 h, FIG. 4B
Method: as §2, with “virions. Thus, the PT67-pLNC-EGFP-(DEVD)-RasF constitutively produces viral particles, able to transmit the EGFP-(DEVD)-RasF and the neomycin resistance gene at the same time. These amphotropic virions give the flexibility to rapidly develop novel cell lines stably expressing EGFP-(DEVD)-RasF proteins.” for “virions.”
as §1

caspase 3 = experiment: Caspase 3 activity with fluorogenic Ac-DEVD-AMC substrate; details: MT4 cells, Ac(N-acetyl)-DEVD-AMC substrate, results not shown

Row | SMILES | EGFP membrane localization (farnesyl transferase; K562 LNC-EGFP-RasF cells, 5 μM, FIG. 2) | EGFP compartmentalisation (farnesyl transferase; K562 cells, high enough concentrations (>5 μM)) | EGFP membrane targeting [1] | translocation of EGFP (MT4-LNC-EGFP-RasF cells; MT4-LNC-EGFP-RasF cells lacking DEVD site) | cell morphology (MT4-LNC-EGFP-RasF cells; MT4-LNC-EGFP-RasF cells) | caspase 3 activity (caspase 3)
1 | CSCC[C@H](NC(=O)c1ccc(NC[C@@H](N)CS)cc1-c1ccccc1)C(=O)O [FTI-276] | disruption of membrane localization | almost completely disappears |  |  |  | 
2 | CN[C@@H]1C[C@H]2O[C@@](C)([C@@H]1OC)n1c3ccccc3c3c4c(c5c6ccccc6n2c5c31)C(=O)NC4 [staurosporin] |  |  | partially disappears; also recorded: reduced EGFP membrane targeting | no prominent translocation of EGFP occurs; also recorded: did not result in marked translocation of EGFP | affects the cells morphology within hours; also recorded: altered cell morphology | induced caspase 3 activity
